The values that follow come from US20020019527A1 (priority 2000, published 2002).

Structures can show the parent of a compound that is named as a salt.

T1 sequence (P49355 whole entry, one chain of several): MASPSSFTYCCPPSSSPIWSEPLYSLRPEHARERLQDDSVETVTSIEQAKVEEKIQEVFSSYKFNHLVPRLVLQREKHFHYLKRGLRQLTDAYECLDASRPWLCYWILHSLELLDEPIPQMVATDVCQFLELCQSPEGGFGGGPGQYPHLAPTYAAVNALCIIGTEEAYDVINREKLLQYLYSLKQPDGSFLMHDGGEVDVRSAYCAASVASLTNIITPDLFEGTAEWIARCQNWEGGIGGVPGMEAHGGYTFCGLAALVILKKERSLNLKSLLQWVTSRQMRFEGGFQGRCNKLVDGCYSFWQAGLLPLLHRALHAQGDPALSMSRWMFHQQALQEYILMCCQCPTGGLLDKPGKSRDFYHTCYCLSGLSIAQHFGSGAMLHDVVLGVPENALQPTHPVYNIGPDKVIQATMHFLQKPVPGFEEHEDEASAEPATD

This test addresses T1, Farnesyltransferase (FTase) (Bos taurus, UniProt P29702+P49355).
T1 construct: precipitation from a beef brain homogenate; from tissue; host or cells: bovine brain
Nature of the test: Farnesyltransferase inhibition (scintillation proximity assay, [3H]-FPP / biotin-K-ras peptide). The following applies: compound at 10^−6 M; bovine FTase, 37° C., 30 minutes. The test is classed as biochemical, bovine. Here is the method: Farnesyltransferase (FTase) or geranylgeranyltransferase I (GGTase I) fractions were isolated from bovine brains and purified by a series of methods which separate FTase from GGTase I and GGTase I from GGTase II. The methods involved a partial purification of all three enzymes by precipitation from a beef brain homogenate with 30% to 50% saturated […] followed by chromatography on DEAE Sepharose. […] The catalytic purity of each enzyme was assayed separately with substrate acceptor proteins specific for that enzyme. After quickly freezing in liquid nitrogen, the various prenyl transferases were stored at −80° C.
The quenched reactions stood for 1 hour before analysis in a Packard TopCount scintillation counter. Purified compounds were dissolved in 100% ethanol and diluted 10-fold into the assay.
What is called inhibition is how much of the control response was suppressed. A low value points to a response near the control. Turning to `Cn1cncc1C(OCc1ccc(C#N)c(I)c1)c1ccc(C#N)c(-c2cccc3ccccc23)c1` (stereo not drawn) [Example 63, 4-(((4-cyano-3-iodobenzyl)oxy)(1-methyl-1H-imidazol-5-yl)methyl)-2-(1-naphthyl)benzonitrile hydrochloride], testing at 1 µM gave an inhibition of 100%. The compound `COC(=O)c1ccc(COC(c2ccc(C#N)c(-c3cccc4ccccc34)c2)c2cncn2C)cc1` (stereo not drawn) [Example 64, methyl 4-(((4-cyano-3-(1-naphthyl)phenyl)(1-methyl-1H-imidazol-5-yl)methoxy)methyl)benzoate hydrochloride] had an inhibition at 1 µM of 100%. Compound `Cn1cncc1C(OCc1ccc(C(F)(F)F)cc1)c1ccc(C#N)c(-c2cccc3ccccc23)c1` (stereo not drawn) [Example 65, 4-((1-methyl-1H-imidazol-5-yl)((4-(trifluoromethyl)benzyl)oxy)methyl)-2-(1-naphthyl)benzonitrile hydrochloride] displayed an inhibition at 1 µM of 100%.

`Cn1cncc1C(OCc1ccc(Cl)cc1)c1ccc(C#N)c(-c2cccc3ccccc23)c1` (stereo not drawn) [Example 66, 4-(((4-chlorobenzyl)oxy)(1-methyl-1H-imidazol-5-yl)methyl)-2-(1-naphthyl)benzonitrile hydrochloride] registered an inhibition at 1 µM of 100%. Consider `Cn1cncc1C(OCc1ccc(OC(F)(F)F)cc1)c1ccc(C#N)c(-c2cccc3ccccc23)c1` (stereo not drawn) [Example 67, 4-((1-methyl-1H-imidazol-5-yl)((4-(trifluoromethoxy)benzyl)oxy)methyl)-2-(1-naphthyl)benzonitrile hydrochloride], for which the inhibition at 1 µM turned out to be 100%. The same measure, in the same setting: the figure for `Cn1cncc1C(OCc1cccc(C(F)(F)F)c1)c1ccc(C#N)c(-c2cccc3ccccc23)c1` (stereo not drawn) [Example 68, 4-((1-methyl-1H-imidazol-5-yl)((3-(trifluoromethyl)benzyl)oxy)methyl)-2-(1-naphthyl)benzonitrile hydrochloride] is 100%; for `Cn1cncc1C(OCc1ccc(C(=O)O)cc1)c1ccc(C#N)c(-c2cccc3ccccc23)c1` (stereo not drawn) [Example 69, lithium 4-(((4-cyano-3-(1-naphthyl)phenyl)(1-methyl-1H-imidazol-5-yl)methoxy)methyl)benzoate] it is 100%; for `CN(C)C(=O)c1ccc(COC(c2ccc(C#N)c(-c3cccc4ccccc34)c2)c2cncn2C)cc1` (stereo not drawn) [Example 70, 4-(((4-cyano-3-(1-naphthyl)phenyl)(1-methyl-1H-imidazol-5-yl)methoxy)methyl)-N,N-dimethylbenzamide hydrochloride] it is 100%.

In turn, `Cn1cncc1C(c1ccc(C#N)c(-c2cccc3ccccc23)c1)S(=O)(=O)Cc1ccc(C#N)cc1` (stereo not drawn) [Example 71, 4-(((4-cyanobenzyl)sulfonyl)(1-methyl-1H-imidazol-5-yl)methyl)-2-(1-naphthyl)benzonitrile hydrochloride] displayed an inhibition at 1 µM of 100%.

`Cn1cncc1C(OCc1ccc(Cl)cc1Cl)c1ccc(C#N)c(-c2cccc3ccccc23)c1` (stereo not drawn) [Example 72, 4-(((2,4-dichlorobenzyl)oxy)(1-methyl-1H-imidazol-5-yl)methyl)-2-(1-naphthyl)benzonitrile hydrochloride] showed an inhibition at 1 µM of 100%. On the same count and under the same terms, the figure for `Cn1cncc1C(OCc1ccc(S(C)(=O)=O)cc1)c1ccc(C#N)c(-c2cccc3ccccc23)c1` (stereo not drawn) [Example 73, 4-((1-methyl-1H-imidazol-5-yl)((4-(methylsulfonyl)benzyl)oxy)methyl)-2-(1-naphthyl)benzonitrile hydrochloride] is 100%. The % Inhibition is the relative decrease from the control value, in per cent. A higher % Inhibition goes with a strong effect. Take `Cl.Cl.Cn1cncc1C(OCc1cc(Cl)nc(Cl)c1)c1ccc(C#N)c(-c2cccc3ccccc23)c1` (stereo not drawn) [Example 74, 4-(((2,6-dichloro-4-pyridinyl)methoxy)(1-methyl-1H-imidazol-5-yl)methy)-2-(1-naphthyl)benzonitrile dihydrochloride]: the “% Inhibition at 10^−6M” value was 100%.

`Cn1cncc1C(OCc1ccc(C#N)c(Br)c1)c1ccc(C#N)c(-c2cccc3ccccc23)c1` (stereo not drawn) [Example 75, 4-(((3-bromo-4-cyanobenzyl)oxy)(1-methyl-1H-imidazol-5-yl)methyl)-2-(1-naphthyl)benzonitrile hydrochloride] registered an inhibition at 1 µM of 100%. Still for that read-out and setting: the figure for `Cn1cncc1C(OCc1ccc(C#N)c(F)c1)c1ccc(C#N)c(-c2cccc3ccccc23)c1` (stereo not drawn) [Example 77, 4-(((4-cyano-3-fluorobenzyl)oxy)(1-methyl-1H-imidazol-5-yl)methyl)-2-(1-naphthyl)benzonitrile hydrochloride] is 100%. Compound `Cc1ccccc1-c1cc(C(OCc2ccccc2)c2ccsc2)ccc1C#N` (stereo not drawn) [Example 80, 5-((benzyloxy)(3-thienyl)methyl)-2′-methyl(1,1′-biphenyl)-2-carbonitrile] came in with an inhibition at 1 µM of 12%. Consider `Cc1ccccc1-c1cc(C(OCc2ccccc2)c2cnnn2C)ccc1C#N` (stereo not drawn) [Example 81, 5-((benzyloxy)(1-methyl-1H-1,2,3-triazol-5-yl)methyl)-2′-methyl(1,1′-biphenyl)-2-carbonitrile hydrochloride], for which the inhibition at 1 µM is 14%. `Cc1ccccc1-c1cc(CN(CCC2CCCCC2)Cc2cncn2C)ccc1C#N` [Example 82, 5-(((2-cyclohexylethyl)((1-methyl-1H-imidazol-5-yl)methyl)amino)methyl)-2′-methyl(1,1′-biphenyl)-2-carbonitrile hydrochloride] gave an inhibition at 1 µM of 87%.

Compound `N#Cc1ccc(CN(CCC2CCCCC2)C(=O)Cn2ccnc2)cc1-c1cccc2ccccc12` [Example 85, N-(4-cyano-3-(1-naphthyl)benzyl)-N-(2-cyclohexylethyl)-2-(1H-imidazol-1-yl)acetamide] came in with an inhibition at 1 µM of 46%. The compound `Cc1ccccc1-c1cc(C(O)c2cncn2C)ccc1C#N` (stereo not drawn) [Example 86, 5-(hydroxy(1-methyl-1H-imidazol-5-yl)methyl)-2′-methyl(1,1′-biphenyl)-2-carbonitrile] showed an inhibition at 1 µM of 86%.

Turning to `Cn1cncc1C(OCc1ccccc1)c1ccc(C#N)c(-c2ccccc2)c1` (stereo not drawn) [Example 87, 5-((benzyloxy)(1-methyl-1H-imidazol-5-yl)methyl)(1,1′-biphenyl)-2-carbonitrile hydrochloride], the inhibition at 1 µM came out at 89%. The compound `Cn1cncc1C(OCc1ccccc1)c1ccc(C#N)c(-c2ccsc2)c1` (stereo not drawn) [Example 90, 4-((benzyloxy)(1-methyl-1H-imidazol-5-yl)methyl)-2-(3-thienyl)benzonitrile hydrochloride] yielded an inhibition at 1 µM of 90%. `Cc1cccc(-c2cc(C(OCc3ccccc3)c3cncn3C)ccc2C#N)c1` (stereo not drawn) [Example 91, 5-((benzyloxy)(1-methyl-1H-imidazol-5-yl)methyl)-3′-methyl(1,1′-biphenyl)-2-carbonitrile hydrochloride] came in with an inhibition at 1 µM of 94%. Turning to `Cn1cncc1C(OCc1ccccc1)c1ccc(C#N)c(-c2ccc3ccccc3c2)c1` (stereo not drawn) [Example 92, 4-((benzyloxy)(1-methyl-1H-imidazol-5-yl)methyl)-2-(2-naphthyl)benzonitrile hydrochloride], the inhibition at 1 µM was determined as 53%. `Cc1ccc(-c2cc(C(OCc3ccccc3)c3cncn3C)ccc2C#N)cc1` (stereo not drawn) [Example 93, 5-((benzyloxy)(1-methyl-1H-imidazol-5-yl)methyl)-4′-methyl(1,1′-biphenyl)-2-carbonitrile hydrochloride] yielded an inhibition at 1 µM of 58%.
